Test results as given in ChEMBL document CHEMBL6134813, “Arctigenin derivative TZOA restores mitochondrial homeostasis to combat rhabdovirus infections” (Eur J Med Chem, 2025).
The source made the active and inactive calls. The calls are words filed in the database; no cut-off is given here.

Columns and labels:
[1] = system: Infectious hematopoietic necrosis virus; test: Antiviral activity against IHNV infected in juvenile rainbow trout assessed as increase in IRF3 gene expression in kidney administered intraperitoneally measured after 2 days by RT-qPCR analysis; format: functional, organism-based; details: route ip, time 2.0 day
[2] = system: Infectious hematopoietic necrosis virus; test: Antiviral activity against IHNV infected in juvenile rainbow trout assessed as increase in Mx1 gene expression in kidney administered intraperitoneally measured after 2 days by RT-qPCR analysis; format: functional, organism-based; details: route ip, time 2.0 day
[3] = system: Infectious hematopoietic necrosis virus; test: Antiviral activity against IHNV infected in EPC cells (unknown origin) assessed as area of mitochondria by TEM analysis (reference value: 0.05 to 0.2 um2); format: functional
[4] = system: Infectious hematopoietic necrosis virus; test: Antiviral activity against IHNV infected in EPC cells (unknown origin) assessed as inhibition of viral N gene expression at 25 uM measured after 72 hrs by RT-qPCR analysis relative to control; format: functional
[5] = system: Infectious hematopoietic necrosis virus; test: Antiviral activity against IHNV infected in juvenile rainbow trout assessed as decrease in erythrocytes in spleen administered intraperitoneally measured after 2 days by H and E staining based analysis; format: functional, organism-based; details: route ip, time 2.0 day
[6] = Cytotoxicity against EPC cells (unknown origin) assessed as cell viability up to 25 uM measured after 72 hrs by CCK8 assay; format: toxicity, cell-based
[7] = system: Infectious hematopoietic necrosis virus; test: Antiviral activity against IHNV infected in EPC cells (unknown origin) assessed as viral titer measured per 0.1 ml incubated for 48 hrs by Reed-Muench method (reference value: 1 10^5.75TCID50); format: functional
[8] = system: Infectious hematopoietic necrosis virus; test: Antiviral activity against IHNV infected in EPC cells (unknown origin) assessed as inhibition of viral N gene expression measured after 72 hrs by RT-qPCR analysis; format: functional, organism-based; details: dose 0.1-100 µM
[9] = system: Infectious hematopoietic necrosis virus; test: (§1) Antiviral activity against IHNV infected in juvenile rainbow trout assessed as decrease in viral G gene expression in spleen of recipient fishes on horizontal transmission between virus-infected donor fishes and non-infected recipient fishes at 25 uM immersed together in compound for 48 hrs by qPCR analysis; format: functional, organism-based
[10] = system: Infectious hematopoietic necrosis virus; test: Antiviral activity against IHNV infected in EPC cells (unknown origin) assessed as reduction in cytopathic effect at 25 uM pretreated virus with compound for 1 to 2 hrs followed by compound-treated virus infection in EPC cells measured after 72 hrs by RT-qPCR analysis; format: functional, organism-based; details: time 1-2 hrs
[11] = system: Infectious hematopoietic necrosis virus; test: Antiviral activity against IHNV infected in EPC cells (unknown origin) assessed as reduction in viral G protein expression at 25 uM pretreated virus with compound for 1 hr followed by compound-treated virus infection in EPC cells measured after 72 hrs by RT-qPCR analysis relative to control; format: functional; parameters: scale not given: the % may be the effect or the level left
[12] = system: Infectious hematopoietic necrosis virus; test: Antiviral activity against IHNV infected in EPC cells (unknown origin) assessed as reduction in viral load for adsorption at 25 uM measured after 1 hr of incubation at 4 degreeC by RT-qPCR analysis relative to control; format: functional; parameters: scale not given: the % may be the effect or the level left
[13] = system: Infectious hematopoietic necrosis virus; test: Antiviral activity against IHNV infected in EPC cells (unknown origin) assessed as reduction in viral G protein expression at 25 uM pretreated virus with compound for 2 hrs followed by compound-treated virus infection in EPC cells measured after 72 hrs by RT-qPCR analysis relative to control; format: functional; parameters: scale not given: the % may be the effect or the level left
[14] = system: Infectious hematopoietic necrosis virus; test: Antiviral activity against IHNV infected in juvenile rainbow trout assessed as decrease in viral G gene expression in kidney administered intraperitoneally measured after 1 to 4 days by RT-qPCR analysis; format: functional, organism-based; details: route ip, time 1-4 day
[15] = system: Infectious hematopoietic necrosis virus; test: Antiviral activity against IHNV infected in EPC cells (unknown origin) assessed as reduction in viral G protein expression at 25 uM pretreated virus with compound for 4 hrs followed by compound-treated virus infection in EPC cells measured after 72 hrs by RT-qPCR analysis relative to control; format: functional; parameters: scale not given: the % may be the effect or the level left
[16] = system: Infectious hematopoietic necrosis virus; test: Antiviral activity against IHNV infected in juvenile rainbow trout assessed as increase in Mx1 gene expression in spleen administered intraperitoneally measured after 2 days by RT-qPCR analysis; format: functional, organism-based; details: route ip, time 2.0 day
[17] = system: Infectious hematopoietic necrosis virus; test: Antiviral activity against IHNV infected in EPC cells (unknown origin) assessed as decrease in formation of new viral particles at 25 uM measured after 72 hrs by RT-qPCR analysis relative to control; format: functional; parameters: scale not given: the % may be the effect or the level left
[18] = system: Infectious hematopoietic necrosis virus; test: Antiviral activity against IHNV infected in EPC cells (unknown origin) assessed as reduction in viral load for internalization at 25 uM incubated for 1 hr at 4 degreeC followed by 2 hrs of incubation at 25 degreeC by RT-qPCR analysis relative to control; format: functional; parameters: scale not given: the % may be the effect or the level left; details: time 3 hrs
[19] = system: Infectious hematopoietic necrosis virus; test: Antiviral activity against IHNV infected in EPC cells (unknown origin) assessed as uniform sized nuclei at 25 uM measured after 72 hrs by fluorescence microscopy; format: functional, organism-based
[20] = system: Infectious hematopoietic necrosis virus; test: Antiviral activity against IHNV infected in EPC cells (unknown origin) assessed as increase in virus-reduced MAVS expression in cells by Western blot analysis; format: functional, organism-based
[21] = system: Infectious hematopoietic necrosis virus; test: Antiviral activity against IHNV infected in juvenile rainbow trout assessed as increase in survival rate administered intraperitoneally measured for 14 days relative to control; format: functional; details: route ip; time 14 day
[22] = system: Infectious hematopoietic necrosis virus; test: Antiviral activity against IHNV infected in EPC cells (unknown origin) assessed as inhibition of viral G gene expression measured after 72 hrs by RT-qPCR analysis; format: functional, organism-based; details: dose 0.1-100 µM
[23] = system: Infectious hematopoietic necrosis virus; test: Antiviral activity against IHNV infected in EPC cells (unknown origin) assessed as inhibition of viral M gene expression measured after 72 hrs by RT-qPCR analysis; format: functional, organism-based; details: dose 0.1-100 µM
[24] = system: Infectious hematopoietic necrosis virus; test: Antiviral activity against IHNV infected in EPC cells (unknown origin) assessed as minimal number of apoptotic bodies within observed area at 25 uM measured after 72 hrs by fluorescence microscopy; format: functional, organism-based
[25] = system: Infectious hematopoietic necrosis virus; test: Antiviral activity against IHNV infected in EPC cells (unknown origin) assessed as inhibition of viral replication at 25 uM preincubated for 24 hrs followed by viral infection measured after 72 hrs by RT-qPCR analysis; format: functional, organism-based; details: time 96.0 hrs
[26] = system: Infectious hematopoietic necrosis virus; test: as §1, with “kidney” for “spleen”; format: functional, organism-based
[27] = system: Infectious hematopoietic necrosis virus; test: Antiviral activity against IHNV infected in EPC cells (unknown origin) assessed as mtDNA intact with mitochondria at 25 uM incubated for 72 hrs by TOMM20 dye based analysis; format: functional, organism-based
[28] = Cytotoxicity against EPC cells (unknown origin) assessed as cell viability at 64 uM measured after 72 hrs by CCK8 assay; format: toxicity, cell-based
[29] = system: Infectious hematopoietic necrosis virus; test: Antiviral activity against IHNV infected in EPC cells (unknown origin) assessed as smooth outer membrane in mitochondria by TEM analysis; format: functional, organism-based
[30] = system: Infectious hematopoietic necrosis virus; test: Antiviral activity against IHNV infected in juvenile rainbow trout assessed as increase in ISG15 gene expression in spleen administered intraperitoneally measured after 2 days by RT-qPCR analysis; format: functional, organism-based; details: route ip, time 2.0 day

## COc1ccc(C[C@H]2COC(=O)[C@@H]2Cc2ccc(OCCCCCCCCn3cncn3)c(OC)c2)cc1OC
[1]
  Activity: Active
[2]
  Activity: Active
[3]
  Activity: 0.2 um2
[4]
  inhibition at 25 µM: > 90%
[5]
  Activity: Active
[6]
  Activity: Non-toxic
[7]
  Activity: 1 10^2.45TCID50
[8]
  inhibition: Dose-dependent-effect
[9]
  Activity: Active
[10]
  Activity: Active
[11]
  Activity: 10%
[12]
  Activity: 20%
[13]
  Activity: 24%
[14]
  Activity: Active
[15]
  Activity: 67%
[16]
  Activity: Active
[17]
  Activity: 100%
[18]
  Activity: 46%
[19]
  Activity: Active
[20]
  Activity: Active
[21]
  Survival: 44%
[22]
  inhibition: Dose-dependent-effect
[23]
  inhibition: Dose-dependent-effect
[24]
  Activity: Active
[25]
  inhibition: Active
[26]
  Activity: Active
[27]
  Activity: Active
[28]
  Activity: Toxic
[29]
  Activity: Active
[30]
  Activity: Active
